Experiments:
[1] = test system: mouse oocytes; assay: In vitro maturation of mouse immature oocytes (cumulus oocyte complexes) on mouse granule cells, fertilization and embryo culture; type: cell-based, C57/BL6J mice
Source text: The specific culture method was referred to Example 8, and the differences were: instead of the granule cells form patients, granule cells from C57/BL6J mice were used; instead of the oocytes form patients, cumulus oocyte complexes form C57/BL6J mice were used.

[2] = test system: oocyte in follicle of mouse; assay: In vitro follicle culture model, recovery of oocyte meiosis; type: cell-based; conditions: FIG. 2A
[3] = test system: human immature oocytes; assay: In vitro maturation of human immature oocytes on granule cell feeder layer, then ICSI and embryo culture; type: cell-based
Procedure: Microdrop culture of granule cells: the cumulus oocyte complex collected from superovulation of patients were digested with hyaluronidase and then centrifuged to obtain the granule cells; the cells were cultured in the culture solution for in vitro maturation of examples 1˜6 for microdroplet adherent culture respectively. The microdroplets were covered with liquid paraffin. After the granule cells adhered to the wall of the culture dishes, the resultants could be used as the culture medium 1˜6 for in vitro maturation of immature oocytes.
The immature oocytes identified from superovulation of patients were put in the culture medium for in vitro maturation 1 (i.e., the culture medium obtained by using the culture solution for in vitro maturation of Example 1) containing feeder layer cells for microdrop culture. There were 1˜2 oocytes per microdroplet, culture time 20˜25 h, and culture conditions: 37° C., air with 5% CO2 and 6% of O2, and humidity 100%. The development results of the immature oocytes after microdroplet culturing in the culture medium for in vitro maturation 1 were shown in FIG. 1.
Intracytoplasmic sperm injection (ICSI) using the mature oocytes: the immature oocytes were culture in vitro for 20˜25 h, the maturation status was observed. The oocytes reached the metaphase II (MII) were placed under micromanipulator for ICSI injection.
Embryo culture after fertilization: embryo culture medium G-1PLUS™ (Vitrolife, Sweden) was used to make several 50 μL microdroplets in a 35 mm culture dish. Mineral oil was covered on the surface of the droplets. This culture medium was suitable for culturing embryos from fertilized oocyte (0 day) to 8-cell embryo.
Embryo culture medium G-2 PLUS™ (Vitrolife. Sweden) was used to make several 50 μL microdroplets in a 35 mm Petri culture dish. Mineral oil was covered on the surface of the droplets. This culture medium was suitable for culturing embryos from 8-cell stage until blastocyst stage.
The common medium for maturation was M199 culture medium.

[4] = test system: human ovary granule cells; assay: Expression/secretion of EGF-like growth factors (AREG) by granule cells; type: cell-based; conditions: FIG. 1F
Procedure: Correspondingly, our experiments were performed by: under conditions of in vitro culture, simulating the effect of LH, which functions on granule cells to promote the maturation of oocytes in vivo, so as to achieve the goal of promoting the maturation of oocytes and meanwhile, improving the development potential.

Cc1ccc(NC(=O)CCCCCC(=O)Nc2ccccc2N)cc1 [HDACi 4b]
maturation and development ability of mouse oocytes ([1]; FIG. 2): significantly promotes | oocyte stepping over the first meiosis to metaphase II (MII) ([1]; FIG. 2C): significantly promotes | cleavage abilities after fertilization ([1]; FIG. 2D, versus control group): basically the same | ability to develop into an embryo from fertilized GV stage oocytes ([1]; FIG. 2E): significantly improved | ability to develop into a blastocyst from fertilized treated oocytes ([1]; FIG. 2F): significantly increased | ability to develop into a blastocyst (blastocyst counting) from fertilized treated GV stage oocytes ([1]; FIG. 2H): significantly increased | quality of blastocysts (immunofluorescence of OCT4) ([1]; FIG. 2I): significantly increased | recovery of oocyte meiosis in follicle of mouse [2]: significantly promotes | maturation and development of human oocytes from germinal vesicle (GV) stage into metaphase II (MII) stage ([3]; FIG. 1A): promotes the maturation and development | numbers of 2 pronucleus zygotes (2PN) obtained by ICSI fertilization on MII oocytes ([3]; FIG. 1B, treated group versus control group): basically the same | cleavage ability of treated oocytes after fertilization ([3]; FIG. 1C): significantly improved | development ability of embryos (blastocyst counting) ([3]; FIG. 1E): significantly increased | quality of blastocysts (immunofluorescence of OCT4 and CDX2) ([3]; FIG. 1G): significantly improved | expression of AREG [4]: significantly promotes

From US11767506B2, “In vitro maturation culture medium of immature oocytes and use thereof” (CHINA AGRICULTURAL UNIVERSITY, priority 2017, dated 2023)
